Measurements: the supplement of paper PMC10307832

Legend:
Assay in all cases: relative viability (nuclei count vs DMSO), 5 days (fraction); higher = more cells survive
Neratinib + Lapatinib = compound: CCOc1cc2ncc(C#N)c(Nc3ccc(OCc4ccccn4)c(Cl)c3)c2cc1NC(=O)/C=C/CN(C)C [Neratinib] + CS(=O)(=O)CCNCc1ccc(-c2ccc3ncnc(Nc4ccc(OCc5cccc(F)c5)c(Cl)c4)c3c2)o1 [Lapatinib] (partner 2 µM)
In short: (§1)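 Cells from lung cancer lines were seeded into 1536-well plates and, one day later, dosed by pin tool. Treatments were either a single drug or a fixed dose of an anchor drug with five library-drug doses (not always all listed) in √10 steps. After 5 days, nuclei were stained in a one-step fixation (final 0.05% Triton X-100, 1% formaldehyde, 1 ug/ml Hoechst) and counted on 4× images, and relative viability is the treated-to-vehicle nuclei ratio, as the median of duplicate plates.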

Neratinib + Crizotinib = compound: CCOc1cc2ncc(C#N)c(Nc3ccc(OCc4ccccn4)c(Cl)c3)c2cc1NC(=O)/C=C/CN(C)C [Neratinib] + C[C@@H](Oc1cc(-c2cnn(C3CCNCC3)c2)cnc1N)c1c(Cl)ccc(F)c1Cl [Crizotinib] (partner 1 µM)
In short: as §1

Neratinib + Dasatinib = compound: CCOc1cc2ncc(C#N)c(Nc3ccc(OCc4ccccn4)c(Cl)c3)c2cc1NC(=O)/C=C/CN(C)C [Neratinib] + Cc1nc(Nc2ncc(C(=O)Nc3c(C)cccc3Cl)s2)cc(N2CCN(CCO)CC2)n1 [Dasatinib] (partner 0.075 µM)
In short: as §1

Neratinib + Pemetrexed = compound: CCOc1cc2ncc(C#N)c(Nc3ccc(OCc4ccccn4)c(Cl)c3)c2cc1NC(=O)/C=C/CN(C)C [Neratinib] + Nc1nc2[nH]cc(CCc3ccc(C(=O)N[C@@H](CCC(=O)O)C(=O)O)cc3)c2c(=O)[nH]1 [Pemetrexed] (partner 0.2 µM)
In short: as §1

Row | Cell Line | relative viability (Neratinib + Lapatinib; first compound 0.01 µM) | relative viability (Neratinib + Lapatinib; first compound 0.03162 µM) | relative viability (Neratinib + Lapatinib; first compound 0.1 µM) | relative viability (Neratinib + Lapatinib; first compound 0.3162 µM) | relative viability (Neratinib + Lapatinib; first compound 1 µM) | relative viability (Neratinib + Crizotinib; first compound 0.01 µM) | relative viability (Neratinib + Crizotinib; first compound 0.03162 µM) | relative viability (Neratinib + Crizotinib; first compound 0.1 µM) | relative viability (Neratinib + Crizotinib; first compound 0.3162 µM) | relative viability (Neratinib + Crizotinib; first compound 1 µM) | relative viability (Neratinib + Dasatinib; first compound 0.01 µM) | relative viability (Neratinib + Dasatinib; first compound 0.03162 µM) | relative viability (Neratinib + Dasatinib; first compound 0.1 µM) | relative viability (Neratinib + Dasatinib; first compound 0.3162 µM) | relative viability (Neratinib + Dasatinib; first compound 1 µM) | relative viability (Neratinib + Pemetrexed; first compound 0.01 µM) | relative viability (Neratinib + Pemetrexed; first compound 0.03162 µM) | relative viability (Neratinib + Pemetrexed; first compound 0.1 µM) | relative viability (Neratinib + Pemetrexed; first compound 1 µM) | relative viability (Neratinib + Pemetrexed; first compound 0.3162 µM)
1 | LCLC-97TM1 | 1.29 | 1.01 | 1.02 | 0.637 | 0.275 | 0.344 | 0.33 | 0.314 | 0.242 | 0.136 | 1.05 | 0.859 | 0.858 | 0.726 | 0.693 | 0.186 | 0.209 | 0.138 | 0.185 | –
2 | HARA | 0.994 | 0.73 | 0.339 | 0.569 | 0.712 | 1.19 | 1.09 | 0.731 | 0.782 | 0.489 | 0.303 | 0.312 | 0.196 | 0.155 | 0.148 | 0.317 | 0.276 | 0.196 | 0.238 | –
3 | HCC-78 | 0.89 | 1.09 | 0.788 | 0.952 | 0.398 | 0.325 | 0.3 | 0.284 | 0.264 | 0.225 | 0.5 | 0.363 | 0.342 | 0.292 | 0.276 | 0.889 | 0.925 | 0.883 | 0.885 | 0.898
4 | NCI-H1666 | 1.02 | 0.769 | 0.546 | 0.673 | 0.596 | 1.29 | 1.13 | 0.579 | 0.595 | 0.566 | 0.842 | 0.887 | 0.701 | 0.581 | 0.586 | 0.856 | 0.867 | 0.746 | 0.725 | 0.652
5 | NCI-H2405 | 1.26 | 1.04 | 1.04 | 1.16 | 0.804 | 0.873 | 0.879 | 0.834 | 0.765 | 0.781 | 0.225 | 0.23 | 0.218 | 0.212 | 0.199 | 1.19 | 1.16 | 1.02 | – | 1.04
6 | RERF-LC-KJ | 0.78 | 0.923 | 0.854 | – | 0.915 | 0.847 | 0.817 | 0.795 | 0.701 | 0.633 | 0.941 | 0.822 | 0.681 | 0.653 | 0.335 | 0.484 | 0.483 | 0.505 | 0.405 | 0.477
7 | NCI-H2085 | 0.76 | 0.887 | 0.767 | 0.71 | 0.699 | 0.992 | 0.928 | 0.823 | 0.664 | 0.483 | 0.261 | 0.264 | 0.254 | 0.21 | 0.234 | 0.962 | 0.987 | 0.754 | 0.71 | 0.655
8 | 201T | 1.07 | 0.943 | 0.981 | 1.08 | 1.05 | 1.08 | 0.974 | 0.861 | 1.06 | 0.959 | 0.629 | 0.539 | – | 0.49 | 0.6 | 0.358 | 0.373 | 0.316 | 0.324 | 0.35
9 | NCI-H1915 | 1.05 | 1.05 | 0.898 | 0.832 | 0.964 | 0.973 | 0.931 | 0.864 | 0.811 | 0.725 | 0.384 | 0.339 | 0.218 | 0.332 | 0.287 | 0.495 | 0.495 | 0.44 | 0.516 | 0.412
10 | NCI-H2023 | 0.888 | 0.804 | 0.758 | 0.878 | 0.723 | 0.642 | 0.523 | 0.484 | 0.419 | 0.287 | 0.576 | 0.562 | 0.473 | 0.479 | 0.42 | 0.251 | 0.221 | 0.21 | 0.212 | 0.221
11 | BEN | 0.739 | 1.12 | 0.464 | 0.59 | 0.565 | 0.849 | 1.1 | 0.869 | 0.762 | 0.509 | 0.329 | 0.305 | 0.319 | 0.3 | 0.414 | 0.971 | 0.929 | 0.751 | 0.623 | 0.778
12 | SK-LU-1 | 0.921 | 0.904 | 0.809 | 0.74 | 0.507 | 1.05 | – | 0.848 | 0.604 | 0.402 | 0.174 | 0.175 | 0.168 | 0.195 | 0.173 | 1.01 | 0.999 | 0.932 | 0.49 | 0.917
13 | SK-MES-1 | 0.512 | 0.479 | 0.393 | 0.435 | 0.364 | 1.02 | 0.998 | 0.969 | – | 0.314 | 0.375 | 0.25 | 0.163 | 0.14 | 0.14 | 1.01 | 0.925 | 0.89 | 0.308 | 0.529
14 | PC-3 [JPC-3] | 0.457 | 0.433 | 0.455 | 0.485 | 0.373 | 1.09 | 1.09 | 0.997 | 0.948 | 0.345 | 1.11 | 1.1 | 0.885 | 0.757 | 0.286 | 1.44 | 1.32 | 1.07 | 0.43 | 0.564
15 | NCI-H1355 | 1.09 | 1.06 | 1.04 | 0.984 | 0.938 | 1.12 | 1.11 | 0.949 | 0.846 | 0.31 | 0.754 | 0.745 | 0.629 | 0.584 | 0.39 | 1.07 | 1.03 | 0.951 | 0.821 | 1.02
16 | NCI-H1975 | 1.09 | 0.972 | 0.609 | 0.403 | 0.191 | 1.14 | 1.05 | 0.752 | 0.442 | 0.193 | 0.443 | 0.505 | 0.313 | 0.124 | 0.146 | 0.295 | 0.336 | 0.284 | 0.178 | 0.25
